According to ChEMBL document CHEMBL3882724 (2013):

Target: T1, CYP21 (steroid 21-hydroxylase) (Homo sapiens, UniProt P08686)
T1 sequence (P08686 whole entry): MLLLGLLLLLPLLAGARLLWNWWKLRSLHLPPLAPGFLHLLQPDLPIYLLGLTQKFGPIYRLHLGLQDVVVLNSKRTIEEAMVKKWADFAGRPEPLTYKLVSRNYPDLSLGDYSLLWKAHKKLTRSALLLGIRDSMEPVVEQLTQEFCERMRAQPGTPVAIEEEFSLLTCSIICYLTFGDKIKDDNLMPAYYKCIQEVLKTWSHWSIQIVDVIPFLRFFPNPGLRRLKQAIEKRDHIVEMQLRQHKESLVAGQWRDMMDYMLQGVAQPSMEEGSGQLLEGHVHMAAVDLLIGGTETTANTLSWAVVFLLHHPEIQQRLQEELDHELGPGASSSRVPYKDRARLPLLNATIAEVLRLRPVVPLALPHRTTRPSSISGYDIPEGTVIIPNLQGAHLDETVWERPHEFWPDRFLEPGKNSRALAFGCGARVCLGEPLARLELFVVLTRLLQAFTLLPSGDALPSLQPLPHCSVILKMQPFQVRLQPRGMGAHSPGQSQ
Assay: Inhibition of human CYP21 transfected in HEK293 cells assessed as decrease in conversion of progesterone to 11-deoxycorticosterone preincubated for 5 hrs followed by progesterone addition measured after 20 hrs by ELISA
Assay type: cell-based
Set-up: concentration or dose not given beside the values
Settings: HEK293 cells transfected with human CYP21, probe progesterone

inhibition at 20 h [%]	SMILES
10 to 50	CO[C@H]1CC[C@@]2(C)[C@@H](CC[C@@H]3[C@@H]2CC[C@]2(C)C(c4cnccc4C)=CC[C@@H]32)C1
10 to 50	CC1C[C@H]2C3=CC=C(c4ccc(F)nc4)[C@@]3(C)CC[C@@H]2[C@@]2(C)CCNC(=O)C=C12 (stereo not given in full)
10 to 50	CCc1cncc(C2=CC[C@H]3[C@@H]4CC[C@H]5C[C@@H](OC)CC[C@]5(C)[C@H]4CC[C@]23C)c1
10 to 50	C[C@]12CC(O)CC1CC[C@@H]1[C@@H]2CC[C@]2(C)C(c3cncc(Cl)c3)=CC[C@@H]12 (stereo not given in full)
10 to 50	CC(C)(C)NC(=O)O[C@H]1CC[C@@]2(C)C(=CC[C@H]3C4=CC=C(c5cccnc5)[C@@]4(C)CC[C@@H]32)C1
10 to 50	CC(C)C(=O)O[C@H]1CC[C@@]2(C)C(=CC[C@H]3C4=CC=C(c5cccnc5)[C@@]4(C)CC[C@@H]32)C1
< 10	CC1(C)C2=CC[C@@H]3[C@H](CC[C@]4(C)C(c5cccnc5)=CC[C@@H]34)[C@@]2(C)CCC1O (stereo not given in full)
< 10	CC1C[C@H]2C3=CC=C(c4cncc(C(F)F)c4)[C@@]3(C)CC[C@@H]2[C@@]2(C)CCNC(=O)C=C12 (stereo not given in full)
10 to 50	Cc1ccccc1C(=O)O[C@H]1CC[C@@]2(C)C(=CC[C@H]3C4=CC=C(c5cccnc5)[C@@]4(C)CC[C@@H]32)C1
10 to 50	CCOc1cncc(C2=CC[C@H]3[C@@H]4CC[C@H]5C[C@@H](OC)CC[C@]5(C)[C@H]4CC[C@]23C)c1
< 10	CC(=O)NC1CC[C@@]2(C)C(CC[C@@H]3[C@@H]2CC[C@]2(C)C(c4cccnc4)=CC[C@@H]32)C1C (stereo not given in full)
10 to 50	Cc1cncc(C2=CC=C3[C@@H]4CCC5CNC(=O)CC[C@]5(C)[C@H]4CC[C@]23C)c1 (stereo not given in full)
≥ 50	C[C@]12CCNC(=O)CC1CCC1C2CC[C@]2(C)C(c3cncc(C(F)F)c3)=CCC12 (stereo not given in full)
10 to 50	CCNC(=O)NC1CC[C@@]2(C)C(=CC[C@@H]3[C@@H]2CC[C@]2(C)C(c4cncc(OC)c4)=CC[C@@H]32)C1 (stereo not given in full)
< 10	CC1(C)C(=O)CC[C@@]2(C)C1=CC[C@@H]1[C@@H]2CC[C@]2(C)C(c3cccnc3)=CC[C@@H]12
10 to 50	CO[C@H]1CC[C@@]2(C)C(=CC[C@@H]3[C@@H]2CC[C@]2(C)C(n4ccnc4)=CC[C@@H]32)C1
< 10	CC1C(O)CC[C@@]2(C)C1CC[C@@H]1[C@@H]2CC[C@]2(C)C(c3cncc(C(F)F)c3)=CC[C@@H]12 (stereo not given in full)
< 10	CC(CO)(CO)C(=O)O[C@H]1CC[C@@]2(C)C(=CC[C@H]3C4=CC=C(c5cccnc5)[C@@]4(C)CC[C@@H]32)C1
10 to 50	CCc1ccncc1C1=CC=C2[C@@H]3CCC4CC(=O)NCC[C@]4(C)[C@H]3CC[C@]12C (stereo not given in full)
10 to 50	CC(=O)N(C)[C@H]1CC[C@@]2(C)C(CC[C@@H]3[C@@H]2CC[C@]2(C)C(c4cccnc4)=CC[C@@H]32)C1 (stereo not given in full)
< 10	C[C@]12CC[C@H](O)CC1CC[C@@H]1[C@@H]2CC[C@]2(C)C(c3cccnc3)CC[C@@H]12 (stereo not given in full)
10 to 50	Cc1ccncc1C1=CC=C2[C@@H]3CC[C@H]4CNC(=O)CC[C@]4(C)[C@H]3CC[C@]12C
10 to 50	COC(=O)c1cncn1C1=CC[C@H]2[C@@H]3CC=C4C[C@@H](O)CC[C@]4(C)[C@H]3CC[C@]12C
10 to 50	CC1(O)CC2CC[C@@H]3C(CC[C@]4(C)C(c5cccnc5)=CC[C@@H]34)[C@@]2(C)C1 (single isomer, unassigned)
10 to 50	C[C@]12CC[C@@H](NS(C)(=O)=O)CC1=CC[C@H]1C3CC=C(c4cccnc4)[C@@]3(C)CC[C@@H]12 (single isomer, unassigned)
10 to 50	CNC1CC[C@@]2(C)C(CCC3[C@@H]2CC[C@]2(C)C(c4cncc(C)c4)=CC[C@@H]32)C1 (single isomer, unassigned)

The next lines start with the compound.

SMILES	inhibition at 20 h [%]
CC(=O)N(C)[C@H]1CC[C@@]2(C)C(CC[C@@H]3[C@@H]2CC[C@]2(C)C(c4cncc(C)c4)=CC[C@@H]32)C1 (stereo not given in full)	10 to 50
COC1CC[C@@]2(C)C(=CC[C@@H]3[C@@H]2CC[C@]2(C)C(c4cccnc4)=CC[C@@H]32)C1 (stereo not given in full)	< 10
CC1(O)C=C2CC[C@@H]3[C@H](CC[C@]4(C)C(c5cccnc5)=CC[C@@H]34)[C@@]2(C)CC1 (stereo not given in full)	10 to 50
C[C@]12CC[C@H](O)CC1=CC[C@@H]1[C@@H]2CC[C@]2(C)C(c3cncc(NS(=O)(=O)C(F)(F)F)c3)=CC[C@@H]12	< 10
CC[C@@]1(O)CC[C@@]2(C)C(CC[C@@H]3[C@@H]2CC[C@]2(C)C(c4cccnc4)=CC[C@@H]32)C1 (stereo not given in full)	< 10
C[C@]12CCC3(CO3)CC1CCC1C2CC[C@]2(C)C(c3cccnc3)=CCC12 (stereo not given in full)	10 to 50
C[C@]12CC[C@@](O)(C3CC3)CC1CC[C@@H]1[C@@H]2CC[C@]2(C)C(c3cccnc3)=CC[C@@H]12 (stereo not given in full)	10 to 50
C[C@]12CC[C@H]3[C@@H](CCC4=CC(=O)CC[C@@]43C)C1=CC=C2c1ccc(F)nc1	10 to 50
CCNC(=O)NC1CC[C@@]2(C)C(CC[C@@H]3[C@@H]2CC[C@]2(C)C(c4cccnc4)=CC[C@@H]32)C1C (stereo not given in full)	< 10
CC1C[C@@H]2[C@H](CC[C@]3(C)C(c4cccnc4)=CC[C@@H]23)[C@@]2(C)CC[C@](C)(O)CC12 (stereo not given in full)	10 to 50
Cc1cnc(F)c(C2=CC[C@H]3[C@@H]4CC=C5C[C@@H](O)CC[C@]5(C)[C@H]4CC[C@]23C)c1	10 to 50
CC(C)(C)C(=O)N[C@@H]1CC[C@@]2(C)C(CC[C@@H]3[C@@H]2CC[C@]2(C)C(c4cccnc4)=CC[C@@H]32)C1 (stereo not given in full)	10 to 50
C[C@]12CCC(=O)C=C1C(C1CC1)C[C@@H]1[C@@H]2CC[C@]2(C)C(c3cncc(F)c3)=CC[C@@H]12 (stereo not given in full)	10 to 50
CC1C(=O)CC[C@@]2(C)C1CC[C@@H]1[C@@H]2CC[C@]2(C)C(c3cccnc3)=CC[C@@H]12 (stereo not given in full)	10 to 50
CC(=O)O[C@H]1CC[C@@]2(C)C(CC[C@H]3C4=CC=C(c5cnccc5C)[C@@]4(C)CC[C@@H]32)C1 (stereo not given in full)	10 to 50
CCc1ccncc1C1=CC=C2[C@@H]3CCC4C[C@@H](O)CC[C@]4(C)[C@H]3CC[C@]12C (stereo not given in full)	< 10
C[C@@]1(O)CC[C@@]2(C)C(=CC[C@@H]3[C@@H]2CC[C@]2(C)C(c4cccnc4)=CC[C@@H]32)C1	≥ 50
CC1C[C@@H]2[C@H](CC[C@]3(C)C(c4cncc(C(F)F)c4)=CC[C@@H]23)[C@@]2(C)CCC(=O)C=C12 (stereo not given in full)	10 to 50
C[C@]12CC/C(=N\O)C=C1C(F)C[C@@H]1[C@@H]2CC[C@]2(C)C(c3cccnc3)=CC[C@@H]12 (stereo not given in full)	10 to 50
C[C@]12CC[C@H]3[C@@H](CC(=O)C45CC4CC[C@]35C)C1=CC=C2c1cccnc1 (stereo not given in full)	≥ 50
CC1C[C@H]2C3=CC=C(c4ccc(F)nc4)[C@@]3(C)CC[C@@H]2[C@@]2(C)CCC(=O)C=C12 (stereo not given in full)	10 to 50
Cc1ccncc1C1=CC=C2[C@@H]3CCC4CC(=O)CC[C@]4(C)[C@H]3CC[C@]12C (stereo not given in full)	10 to 50
C[C@]12CCC(=O)C=C1C(n1ccnn1)C[C@@H]1[C@@H]2CC[C@]2(C)C(c3cccnc3)=CC[C@@H]12 (stereo not given in full)	10 to 50
C[C@]12CCC(=O)C=C1C(c1ccccc1)C[C@@H]1[C@@H]2CC[C@]2(C)C(c3cccnc3)=CC[C@@H]12 (stereo not given in full)	< 10
C[C@]12CC[C@H](O)CC1CC[C@@H]1[C@@H]2CC[C@]2(C)C(c3ccc[n+]([O-])c3)CC[C@@H]12 (stereo not given in full)	10 to 50
C[C@]12CC[C@H]3[C@@H](CC=C4C[C@@H](OC(=O)c5ccccc5)CC[C@@]43C)C1=CC=C2c1cccnc1	10 to 50
C[C@@]1(O)CC[C@@]2(C)C(CCC3C4=CC=C(c5cccnc5)[C@@]4(C)CC[C@@H]32)C1 (single isomer, unassigned)	< 10
C[C@]12CCC(N)CC1CC[C@@H]1[C@@H]2CC[C@]2(C)C(c3cccnc3)=CC[C@@H]12 (single isomer, unassigned)	10 to 50
C#CC1(O)CC[C@@]2(C)C(CC[C@@H]3[C@@H]2CC[C@]2(C)C(c4cccnc4)=CC[C@@H]32)C1 (single isomer, unassigned)	10 to 50
